Consider 59 molecules from patent US20220235065A1 (Epizyme, Inc., priority 2016, published 2022).

Counter-ions that a name gives are not always drawn.

The target of this assay is T1, recombinant purified human EHMT2 913-1193 (Homo sapiens, UniProt Q96KQ7).
T1 construct: Recombinant purified human EHMT2 913-1193 (55 μM) synthesized by Viva was used for all experiments; purchased Viva
T1 sequence (Q96KQ7 913-1193): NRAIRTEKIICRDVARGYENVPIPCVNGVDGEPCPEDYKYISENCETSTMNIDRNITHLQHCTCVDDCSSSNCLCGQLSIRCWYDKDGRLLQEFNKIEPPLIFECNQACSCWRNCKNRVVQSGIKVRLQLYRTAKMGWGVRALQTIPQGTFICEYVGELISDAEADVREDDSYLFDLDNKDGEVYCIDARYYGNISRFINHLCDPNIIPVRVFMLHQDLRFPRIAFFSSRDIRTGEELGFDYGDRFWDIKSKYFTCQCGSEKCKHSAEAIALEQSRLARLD
Nature of the assay: EHMT2 enzyme assay on histone peptide substrate (3H-SAM Flashplate). The format is biochemical. Particulars: read-out: EHMT2 PEP (IC50 μM). The procedure, abridged:
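Compounds (10-point 3-fold series, top 50 μM final, 2% DMSO) preincubated 30 min with 0.031 nM EHMT2 in 20 mM Bicine pH 7.5, 1 mM TCEP; reaction started with 3H-SAM and biotinylated H3 1-15 peptide, both at Km, run 60 min at room temperature. Flashplate capture; IC50 from four-parameter fit, triplicates.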
As for `CNc1cc(C)nc(Nc2ccc(OC)c(-c3cc(C4CC4)on3)c2)n1` [Compound 13], the IC50 (in general, the concentration needed to halve the response being measured) was 1 to 10 µM.

As to `CNc1cc(C)nc(Nc2ccc(OC)c(-n3cc(C4CC4)cn3)c2)n1` [Compound 14, 2-N-[3-(4-cyclopropyl-1H-pyrazol-1-yl)-4-methoxyphenyl]-4-N,6-dimethylpyrimidine-2,4-diamine], the IC50 fell in the range of 1 to 10 µM.

In the case of `CNc1cc(C)nc(Nc2ccc(OC)c(-n3cccn3)c2)n1` [Compound 15, 2-N-[4-methoxy-3-(1H-pyrazol-1-yl)phenyl]-4-N,6-dimethylpyrimidine-2,4-diamine; trifluoroacetic acid], the IC50 was above 10 µM.

Regarding `CNc1cc(C)nc(Nc2cnc(OC)c(-n3ncc4c3CCNC4)c2)n1` [Compound 19], the IC50 was 1 to 10 µM.

For the molecule `CNc1cc(C)nc(Nc2ccc(OC)c(-c3nnc4n3CCNC4)c2)n1` [Compound 21], the IC50 is above 10 µM.

With `CNc1cc(C)nc(Nc2ccc(OC)c(-n3cc4c(n3)CNCC4)c2)n1` [Compound 22, 2-N-(4-methoxy-3-[2H,4H,5H,6H,7H-pyrazolo[3,4-c]pyridin-2-yl]phenyl)-4-N,6-dimethylpyrimidine-2,4-diamine hydrochloride], the IC50 was above 10 µM.

With `CNc1cc(C)nc(Nc2ccc(OC)c(-n3cc(CN)cn3)c2)n1` [Compound 23, 2-N-[3-[4-(aminomethyl)-1H-pyrazol-1-yl]-4-methoxyphenyl]-4-N,6-dimethylpyrimidine-2,4-diamine; trifluoroacetic acid], the IC50 was below 0.1 µM.

As to `CNc1cc(C)nc(Nc2ccc(OC)c(-n3nccc3CN)c2)n1` [Compound 24], the IC50 lay in the range of 1 to 10 µM.

For the molecule `CNc1cc(C)nc(Nc2ccc(OC)c(-n3ncc4c3CCCC4)c2)n1` [Compound 26, 2-N-[4-methoxy-3-(4,5,6,7-tetrahydro-1H-indazol-1-yl)phenyl]-4-N,6-dimethylpyrimidine-2,4-diamine trifluoroacetic acid], the IC50 was above 10 µM.

As for `CNc1nc(Nc2ccc(OC)c(-n3cc4c(n3)CCNC4)c2)nc(C)c1F` [Compound 27, 5-fluoro-2-N-(4-methoxy-3-[2H,4H,5H,6H,7H-pyrazolo[4,3-c]pyridin-2-yl]phenyl)-4-N,6-dimethylpyrimidine-2,4-diamine trifluoroacetic acid], the IC50 fell in the range of 0.1 to 1 µM.

As for `CNc1nc(Nc2ccc(OC)c(-n3ncc4c3CCNC4)c2)nc(C)c1F` [Compound 28, 5-fluoro-2-N-(4-methoxy-3-[1H,4H,5H,6H,7H-pyrazolo[4,3-c]pyridin-1-yl]phenyl)-4-N,6-dimethylpyrimidine-2,4-diamine trifluoroacetic acid], the IC50 was 1 to 10 µM.

Turning to `CNc1cc(C)nc(Nc2ccc(OC)c(-c3c(C)nc4n3CCNC4)c2)n1` [Compound 30], the IC50 was above 10 µM.

With `CNc1cc(C)nc(Nc2ccc(OC)c(-c3nnc4n3CCN(C)C4)c2)n1` [Compound 31], the IC50 was above 10 µM.

Turning to `CNc1cc(C)nc(Nc2ccc(OC)c(-n3ncc4c3CCCN4)c2)n1` [Compound 32], the IC50 is above 10 µM.

As for `CNc1cc(C)nc(Nc2ccc(OC)c(-c3cccc4[nH]ccc34)c2)n1` [Compound 33, 2-N-[3-(1H-indol-4-yl)-4-methoxyphenyl]-4-N,6-dimethylpyrimidine-2,4-diamine hydrochloride], the IC50 is above 10 µM.

On to `CNc1cc(C)nc(Nc2ccc(OC)c(-n3ncc4cnccc43)c2)n1` [Compound 35, 2-N-(4-methoxy-3-[1H-pyrazolo[4,3-c]pyridin-1-yl]phenyl)-4-N,6-dimethylpyrimidine-2,4-diamine; trifluoroacetic acid], for which the concentration for half-maximal inhibition (IC50) was 1 to 10 µM.

For the molecule `CNc1cc(C)nc(Nc2ccc(OC)c(-n3ncc4ccncc43)c2)n1` [Compound 36], the IC50 is above 10 µM.

Turning to `CNc1cc(C)nc(Nc2ccc(OC)c(-c3cccc4[nH]ncc34)c2)n1` [Compound 37, 2-N-[3-(1H-indazol-4-yl)-4-methoxyphenyl]-4-N,6-dimethylpyrimidine-2,4-diamine; trifluoroacetic acid], the IC50 was above 10 µM.

For the molecule `CNc1cc(C)nc(Nc2ccc(OC)c(-c3nc4cnccn4n3)c2)n1` [Compound 38], the IC50 was above 10 µM.

For the molecule `CNc1cc(C)nc(Nc2ccc(OC)c(-c3c(C)nc4cnccn34)c2)n1` [Compound 39], the IC50 is above 10 µM.

Regarding `CCc1ccc(Nc2nc(C)cc(NC)n2)cc1C(=O)Nc1cccnc1` [Compound 244], the IC50 was above 10 µM.

Regarding `CNc1cc(C)nc(Nc2ccc(Cl)c(C(=O)Nc3ccnnc3)c2)n1` [Compound 245], the IC50 is above 10 µM.

Consider `CNc1cc(C)nc(Nc2ccc(Cl)c(C(=O)Nc3nccs3)c2)n1` [Compound 246], for which the IC50 was 1 to 10 µM.

Turning to `Cc1cc(NC2CCNCC2)ncc1-c1cc2[nH]ccc2cn1` [Compound 247], the IC50 fell in the range of 1 to 10 µM.

For `CNc1cc(C)nc(Nc2ccc(Cl)c(C(=O)Nc3cnccn3)c2)n1` [Compound 251], the half-maximal inhibitory concentration (IC50) is 1 to 10 µM.

As to `CNc1cc(C)nc(Nc2ccc(Cl)c(-c3cc4[nH]ccc4cn3)c2)n1` [Compound 255], the IC50 is below 0.1 µM.

`CNc1cc(C)nc(Nc2ccc(C)c(-c3cc4[nH]ccc4cn3)c2)n1` [Compound 256]: the IC50 is below 0.1 µM.

For the molecule `CNc1nc2cc(-c3cc4[nH]ccc4cn3)c(C)cc2n1C` [Compound 257], the IC50 fell in the range of 1 to 10 µM.

`CNc1cc(C)nc(Nc2ccc(Cl)c(C(=O)Nc3ncccn3)c2)n1` [Compound 258]: the IC50 lay within 1 to 10 µM.

Consider `CNc1cc(C)nc(Nc2ccc(Cl)c(C(=O)Nc3ccncn3)c2)n1` [Compound 259], for which the IC50 was above 10 µM.

Regarding `CNc1cc(C)nc(Nc2ccc(Cl)c(-c3cc4c(cn3)CC(=O)N4)c2)n1` [Compound 260], the IC50 lay within 1 to 10 µM.

Regarding `CNCc1cnn(-c2cc(Nc3nc(C)cc(NC)n3)ccc2Cl)c1` [Compound 262, N2-(4-chloro-3-(4-((methylamino)methyl)-1H-pyrazol-1-yl)phenyl)-N4,6-dimethylpyrimidine-2,4-diamine], the IC50 is below 0.1 µM.

As to `CCc1ccc(Nc2nc(C)cc(NC)n2)cc1-c1cc2ccncc2[nH]1` [Compound 269], the IC50 was below 0.1 µM.

Consider `CNc1cc(C)nc(Nc2ccc(C)c(-c3[nH]c4cnccc4c3C#N)c2)n1` [Compound 271], for which the IC50 is 1 to 10 µM.

As for `CNc1cc(C)nc(Nc2ccc(C)c(-c3cc4ccccc4[nH]3)c2)n1` [Compound 274], the IC50 was above 10 µM.

Consider `CCNc1c[nH]c(=O)c(-c2cc(Nc3nc(C)cc(NC)n3)ccc2C)c1` [Compound 276], for which the IC50 lay in the range of 1 to 10 µM.

Consider `CNc1nc2cc(-c3cc4ccncc4[nH]3)c(C)cc2n1C` [Compound 278], for which the IC50 is below 0.1 µM.

Regarding `CNc1cc(C)nc(Nc2ccc(C)c(-c3nc4ccncc4[nH]3)c2)n1` [Compound 279], the IC50 is below 0.1 µM.

On to `CNc1cc(C)nc(Nc2ccc(C)c(C(=O)Nc3cscn3)c2)n1` [Compound 280], for which the IC50 is above 10 µM.

With `CNc1cc(C)nc(Nc2ccc(C)c(-n3cc4cnccc4n3)c2)n1` [Compound 282], the IC50 is below 0.1 µM.

`CNCc1cnn(-c2cc(Nc3nc(C)cc(NC)n3)ccc2OC)c1` [Compound 285]: the IC50 was below 0.1 µM.

For the molecule `CNCc1cnn(-c2cc(Nc3nc(C)cc(NC)n3)ccc2C)c1` [Compound 286, N4,6-dimethyl-N2-(4-methyl-3-(4-((methylamino)methyl)-1H-pyrazol-1-yl)phenyl)pyrimidine-2,4-diamine], the IC50 is below 0.1 µM.

Consider `CNc1cc(C)nc(Nc2ccc(C)c(C(=O)Nc3cnccn3)c2)n1` [Compound 287], for which the IC50 lay within 1 to 10 µM.

In the case of `CNc1cc(C)nc(Nc2ccc(OC)c(-c3[nH]c4cnccc4c3C#N)c2)n1` [Compound 291], the IC50 lay within 1 to 10 µM.

As for `CNc1cc(C)nc(Nc2ccc(OC)c(-c3cc4[nH]ccc4c(C#N)n3)c2)n1` [Compound 292], the IC50 was in the range of 0.1 to 1 µM.

Consider `CNc1cc(C)nc(Nc2ccc(OC)c(-c3cc4[nH]ccc4c(CNC(C)=O)n3)c2)n1` [Compound 293], for which the IC50 lay within 0.1 to 1 µM.

On to `CNC1=Nc2cc(-c3cnc4cc[nH]c4c3)c(OC)cc2C12CCC2` [Compound 294], for which the IC50 was below 0.1 µM.

With `CNc1nc2cc(-c3cnc4cc[nH]c4c3)c(OC)cc2n1C` [Compound 295], the IC50 was in the range of 1 to 10 µM.

As for `CNc1cc(C)nc(Nc2ccc(OC)c(-c3cc4[nH]ccc4c(CN)n3)c2)n1` [Compound 296], the IC50 was 0.1 to 1 µM.

As for `CNc1cc(C)nc(Nc2ccc(C)c(C(=O)Nc3cn(C)nn3)c2)n1` [Compound 299], the IC50 was above 10 µM.

Regarding `CNC1=Nc2cc(-c3cc4[nH]ccc4nc3C)c(OC)cc2C12CCC2` [Compound 300], the IC50 was in the range of 0.1 to 1 µM.

With `CNc1cc(C)nc(Nc2ccc(C)c(C(=O)Nc3cn(C)cn3)c2)n1` [Compound 302], the concentration for half-maximal inhibition (IC50) was above 10 µM.

As to `CNc1nc2cc(-c3[nH]c4cnccc4c3C)c(OC)cc2n1C` [Compound 304], the IC50 is 0.1 to 1 µM.

With `COc1cc(NC2CCNC2)ccc1-c1[nH]c2cnccc2c1C` (centres unmarked) [Compound 305], the IC50 lay in the range of 0.1 to 1 µM.

Take `CNc1cc(C)nc(Nc2ccc(OC)c(-c3nccc(NC)n3)c2)n1` [Compound 306]: the IC50 lay within 1 to 10 µM.

Consider `CNCc1cnn(-c2c(F)ccc(Nc3nc(C)cc(NC)n3)c2F)c1` [Compound 307], for which the IC50 is below 0.1 µM.

As to `CNC1=Nc2cc(-c3cc4[nH]ccc4c(C(N)=O)n3)c(OC)cc2C12CCC2` [Compound 308], the IC50 fell in the range of 1 to 10 µM.

Take `COc1cc2c(cc1-c1cc3[nH]ccc3cn1)N=C(NCC(N)=O)C21CCC1` [Compound 309]: the IC50 lay in the range of 1 to 10 µM.

For `COc1cc(NC2CCNCC2)ccc1-c1[nH]c2cnccc2c1C` [Compound 310], the IC50 lay in the range of 1 to 10 µM.
